In publication PMC6751662, “Pharmacological and functional similarities of the human neuropeptide Y system in C. elegans challenges phylogenetic views on the FLP/NPR system” (Cell Communication and Signaling : CCS, 2019):
Ends that are not written are not given here.

Assays:
Format in all cases: cell-based, C. elegans
NPR-4b = molecular target: T1, NPR-4b (Caenorhabditis elegans, UniProt A0A078BTK0); test: cAMP reporter gene assay, Gi/o (inhibition of forskolin-induced cAMP), NPR-4b; settings: for Gi (Gs) [x-fold of forskolin], NPR-4b, mean: inhibition of cAMP production induced by 1 µM forskolin (set to 1.00); for Gi (Gs) [x-fold of forskolin], NPR-4b, mean / cAMP, x-fold of forskolin (mean), NPR-4b: mean of at least three independent experiments; for cAMP, x-fold of forskolin (mean), NPR-4b: 1 µM forskolin set to 1.00
T1 sequence (A0A078BTK0 1-376): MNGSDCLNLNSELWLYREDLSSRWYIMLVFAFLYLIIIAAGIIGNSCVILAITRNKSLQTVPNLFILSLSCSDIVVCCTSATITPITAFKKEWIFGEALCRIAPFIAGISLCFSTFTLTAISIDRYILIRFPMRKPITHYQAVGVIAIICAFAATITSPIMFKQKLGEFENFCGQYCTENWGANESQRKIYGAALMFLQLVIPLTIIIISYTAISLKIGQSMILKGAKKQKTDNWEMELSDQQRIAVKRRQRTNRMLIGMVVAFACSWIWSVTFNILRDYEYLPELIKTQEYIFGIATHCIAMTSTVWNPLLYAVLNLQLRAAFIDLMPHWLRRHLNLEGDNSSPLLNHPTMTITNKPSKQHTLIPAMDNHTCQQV
Protocol: (§1) Activation of Gs and Gi/o was assessed with a cAMP reporter gene assay. HEK293 cells grown to 70–80% confluency in 6-well plates were transiently co-transfected with vectors encoding the receptor and the cAMP reporter gene plasmid pGL4.29 [luc2P/CRE/Hygro] (Promega; 4 μg total, 1:1 ratio) using Metafectene Pro (3 μl/μg DNA; Biontex) following the manufacturer’s instructions. 16 h post transfection, the cells were seeded into white 384-well plates at a density of 20,000 cells/well. On the next day, the medium was removed and the cells were stimulated with 20 μl of peptide solution (or forskolin as positive control) in serum-free DMEM for 4 h. For measuring Gi/o activity, the peptide solutions additionally contained 1 μM forskolin to elevate cellular cAMP levels. After incubation, the luciferase substrate OneGlo in lysis buffer (Promega) was added and the luminescence was measured in a microplate reader Tecan Spark (Tecan).
(§2) For in vitro activation, data is presented as mean ± SEM of at least three independent experiments conducted in technical triplicate. […] For the C. elegans NPRs, we considered the strongest response elicited by any of the peptides downstream of a particular receptor as the receptor’s maximal signal. This may or may not be the biological maximum that can be reached by the ‘true’ endogenous agonist. For the human receptors, the response to the established endogenous agonist reflected the maximal signal.

NPR-11 = molecular target: T2, NPR-11 (Caenorhabditis elegans, UniProt Q18179); test: cAMP reporter gene assay, Gi/o (inhibition of forskolin-induced cAMP), NPR-11; settings: for Gi (Gs) [x-fold of forskolin], NPR-11, mean: inhibition of cAMP production induced by 1 µM forskolin (set to 1.00); for Gi (Gs) [x-fold of forskolin], NPR-11, mean / cAMP, x-fold of forskolin (mean), NPR-11: transiently transfected HEK293 cells, mean of at least three independent experiments; for cAMP, x-fold of forskolin (mean), NPR-11: 1 µM forskolin set to 1.00
T2 construct: expressed in transfected cells; host or cells: HEK293, transient
T2 sequence (Q18179 1-402): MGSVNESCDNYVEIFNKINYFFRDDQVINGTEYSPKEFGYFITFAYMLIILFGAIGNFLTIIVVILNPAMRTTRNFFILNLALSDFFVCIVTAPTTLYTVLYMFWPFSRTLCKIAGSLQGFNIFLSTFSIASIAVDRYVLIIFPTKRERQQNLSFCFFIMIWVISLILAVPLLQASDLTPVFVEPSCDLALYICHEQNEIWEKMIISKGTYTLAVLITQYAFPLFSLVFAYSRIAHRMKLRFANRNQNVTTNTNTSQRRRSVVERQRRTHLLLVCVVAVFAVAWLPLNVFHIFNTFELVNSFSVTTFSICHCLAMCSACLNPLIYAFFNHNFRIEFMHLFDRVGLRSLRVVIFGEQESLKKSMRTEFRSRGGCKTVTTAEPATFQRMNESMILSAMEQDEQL
Protocol: as §1, with “(Tecan). Data were analyzed with GraphPad Prism 5.03 and are shown as fold of basal or fold of forskolin in case of Gαi/o activity.” for “(Tecan).”
as §2

NPR-3 = molecular target: T3, NPR-3 (Caenorhabditis elegans, UniProt P90745); test: cAMP reporter gene assay, Gi/o (inhibition of forskolin-induced cAMP), NPR-3; settings: for Gi (Gs) [x-fold of forskolin], NPR-3, mean: inhibition of cAMP production induced by 1 µM forskolin (set to 1.00); for Gi (Gs) [x-fold of forskolin], NPR-3, mean / cAMP, x-fold of forskolin (mean), NPR-3: transiently transfected HEK293 cells, mean of at least three independent experiments; for cAMP, x-fold of forskolin (mean), NPR-3: 1 µM forskolin set to 1.00
T3 construct: expressed in transfected cells; host or cells: HEK293
T3 sequence (P90745 1-376): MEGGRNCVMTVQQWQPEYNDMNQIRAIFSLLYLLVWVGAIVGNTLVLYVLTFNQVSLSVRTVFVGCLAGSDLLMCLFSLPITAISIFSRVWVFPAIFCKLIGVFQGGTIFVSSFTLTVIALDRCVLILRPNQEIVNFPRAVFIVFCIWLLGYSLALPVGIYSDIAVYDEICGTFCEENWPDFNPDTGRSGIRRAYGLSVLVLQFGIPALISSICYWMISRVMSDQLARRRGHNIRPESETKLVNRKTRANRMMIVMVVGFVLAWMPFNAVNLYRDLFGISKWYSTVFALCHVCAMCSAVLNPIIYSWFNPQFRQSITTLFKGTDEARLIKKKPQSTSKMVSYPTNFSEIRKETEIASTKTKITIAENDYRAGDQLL
Protocol: as §1, with “(Tecan). Data were analyzed with GraphPad Prism 5.03 and are shown as fold of basal or fold of forskolin in case of Gαi/o activity.” for “(Tecan).”
as §2

NPR-1 = molecular target: T4, NPR-1 (Caenorhabditis elegans, UniProt Q18534); test: cAMP reporter gene assay, Gi/o (inhibition of forskolin-induced cAMP), NPR-1; design: host or cells: HEK293; settings: for Gi (Gs) [x-fold of forskolin], NPR-1, mean / cAMP, x-fold of forskolin (mean), NPR-1: inhibition of cAMP production induced by 1 µM forskolin (set to 1.00), transiently transfected HEK293 cells, mean of at least three independent experiments; for cAMP, x-fold of forskolin (mean), NPR-1: lower = higher Gi/o activity
T4 sequence (Q18534 1-457): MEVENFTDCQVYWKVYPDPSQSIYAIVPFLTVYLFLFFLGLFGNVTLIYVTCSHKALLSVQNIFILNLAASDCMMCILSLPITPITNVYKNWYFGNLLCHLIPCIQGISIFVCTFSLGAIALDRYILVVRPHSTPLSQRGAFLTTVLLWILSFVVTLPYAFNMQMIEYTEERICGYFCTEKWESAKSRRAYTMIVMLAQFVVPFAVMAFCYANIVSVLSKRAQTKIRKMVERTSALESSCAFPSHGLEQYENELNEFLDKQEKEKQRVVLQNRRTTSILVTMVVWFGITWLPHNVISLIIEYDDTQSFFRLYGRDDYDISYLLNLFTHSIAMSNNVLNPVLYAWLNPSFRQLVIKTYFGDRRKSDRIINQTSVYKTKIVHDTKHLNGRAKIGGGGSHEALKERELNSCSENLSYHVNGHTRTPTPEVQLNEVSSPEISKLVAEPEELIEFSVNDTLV
Protocol: as §1, with “(Tecan). Data were analyzed with GraphPad Prism 5.03 and are shown as fold of basal or fold of forskolin in case of Gαi/o activity.” for “(Tecan).”
as §2

[1] = 0.1 µM peptide, transiently transfected HEK293 cells
[2] = 10 µM peptide, transiently transfected HEK293 cells
[3] = HEK293, read-out: Emax ± SEM [%], SEM

| Substance | cAMP, x-fold of forskolin (mean), NPR-4b (NPR-4b; [1]) | cAMP, x-fold of forskolin (mean), NPR-4b (NPR-4b; [2]) | cAMP, x-fold of forskolin (mean), NPR-11 (NPR-11; 0.1 µM peptide) | cAMP, x-fold of forskolin (mean), NPR-11 (NPR-11; 10 µM peptide) | cAMP, x-fold of forskolin (mean), NPR-3 (NPR-3; 0.1 µM peptide) | cAMP, x-fold of forskolin (mean), NPR-3 (NPR-3; 10 µM peptide) | cAMP, x-fold of forskolin (mean), NPR-1 (NPR-1; 0.1 µM peptide) | cAMP, x-fold of forskolin (mean), NPR-1 (NPR-1; 10 µM peptide) | also measured |
| --- | --- | --- | --- | --- | --- | --- | --- | --- | --- |
| GLGPRPLAF-NH2 [[R8A]FLP-21, R8A control peptide of FLP-21, penultimate arginine exchanged for an alanine] |  |  |  |  |  |  |  |  | Gi (Gs) [x-fold of forskolin], NPR-4b, mean (NPR-4b; [1]): 0.95 x-fold of forskolin; Gi (Gs) [x-fold of forskolin], NPR-4b, mean (NPR-4b; [2]): 0.99 x-fold of forskolin; Gi (Gs) [x-fold of forskolin], NPR-11, mean (NPR-11; 0.1 µM peptide): 0.87 x-fold of forskolin; Gi (Gs) [x-fold of forskolin], NPR-11, mean (NPR-11; 10 µM peptide): 0.67 x-fold of forskolin; Gi (Gs) [x-fold of forskolin], NPR-3, mean (NPR-3; 0.1 µM peptide): 1.20 x-fold of forskolin; Gi (Gs) [x-fold of forskolin], NPR-3, mean (NPR-3; 10 µM peptide): 1.38 x-fold of forskolin; Gi (Gs) [x-fold of forskolin], NPR-1, mean (NPR-1; 0.1 µM peptide): 0.90 x-fold of forskolin; Gi (Gs) [x-fold of forskolin], NPR-1, mean (NPR-1; 10 µM peptide): 0.89 x-fold of forskolin |
| GLGPRPLRF-NH2 [FLP-21] |  |  |  |  |  |  |  |  | EC50 (NPR-4b): 0.358 µM; Emax (NPR-4b; NPR-4b, forskolin (1 µM) set to 1.00, lower values correspond to high Gi/o activity, transiently transfected HEK293 cells, mean ± SEM of at least three independent experiments, SEM): -0.58 ± 0.07%; EC50 (NPR-11): 0.102 µM; Emax (NPR-11; [3]): -0.72 ± 0.06%; Emax (NPR-3; [3]): -0.59 ± 0.26%; EC50 (NPR-1): 0.00097 µM; Emax (NPR-1; [3]): -0.97 ± 0.15% |
| NPENDTPFGTMRF-NH2 [FLP-3-4, C. elegans FMRFamide-like peptide, C-terminally amidated, synthesized by SPPS] | 0.67 x-fold of forskolin | 0.23 x-fold of forskolin | 0.80 x-fold of forskolin | 0.97 x-fold of forskolin | 0.85 x-fold of forskolin | 0.89 x-fold of forskolin | 0.87 x-fold of forskolin | 0.89 x-fold of forskolin |  |
| PrRP31 [reference compound] | 1.05 x-fold of forskolin | 0.64 x-fold of forskolin | 1.06 x-fold of forskolin | 0.74 x-fold of forskolin | 1.10 x-fold of forskolin | 1.29 x-fold of forskolin | 1.30 x-fold of forskolin | 1.41 x-fold of forskolin |  |
